How the values were obtained:
[1] = Metabolism test using human liver microsome fractions; format: in vitro ADME; settings: human liver microsomes, test compound 10 μmol/L, NADPH and UDP-glucuronic acid, 37° C.
In short: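 Human or monkey liver microsomes (1 mg protein) with NADPH-regenerating system plus UDP-glucuronic acid/UGT mix, 37 °C; compound at 10 μmol/L final. Samples at 0–30 min quenched in acetonitrile, UV-HPLC; elimination rate (pmol/min/mg-P) from linear slope of residual amount over time.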

[2] = molecular target: T1, GST fusion human Keap1 (amino acid residue: 325-624) protein (Homo sapiens, UniProt Q14145); assay: Keap1-Nrf2 binding inhibition test (fluorescence polarization); settings: compound concentration of 100 nM; read-out: inhibition rate
T1 construct: GST fusion human Keap1 (amino acid residue: 325-624) protein; purchased Protein tech Ag0779
In short: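 Fluorescence polarization with FITC-labelled Nrf2 peptide (FITC-Ahx-LDEETGEFL-NH2) and GST-human Keap1 (325-624) in 20 mM Tris pH 7.5, 150 mM NaCl, 0.05% Tween 20, 5 mM DTT, BSA; 30 min at room temperature, ex 482/em 530 nm. Percent inhibition at 100 nM compound, Keap1-free wells = 100%.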

NQO1 [3] = assay: NQO1 enzyme induction test (in vitro) in Hepa1c1c7 cells; format: cell-based; settings: Mus musculus, Hepa-1c1c7, 48 h, concentration to elevate the NQO1 activity by 1.5 times, about 48 hours, read-out: EC150
In short: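 Mouse Hepa1c1c7 cells treated about 48 h with compound (0.1% DMSO final), then lysed. NQO1 activity read as MTT reduction at 540 nm with menadione substrate, 5 min at room temperature, and corrected for cell number by CellTiter-Glo. EC150 is the concentration raising NQO1 activity 1.5-fold.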

NQO1 [4] = assay: NQO1 expression induction test in mouse kidney (single administration); format: in vivo; settings: Mus musculus, po, 6 h, Dose 30 mg/kg, BALB/c mouse kidney, 6 hours after administration, ratio to control group
In short: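 Female BALB/c mice received a single oral dose of compound in 0.5% methylcellulose, with untreated mice as controls. Six hours later, left-kidney NQO1 mRNA was measured by SYBR real-time RT-PCR normalised to GAPDH. Induction was expressed as the ratio of mean treated to mean control expression.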

T1 sequence (Q14145 325-624): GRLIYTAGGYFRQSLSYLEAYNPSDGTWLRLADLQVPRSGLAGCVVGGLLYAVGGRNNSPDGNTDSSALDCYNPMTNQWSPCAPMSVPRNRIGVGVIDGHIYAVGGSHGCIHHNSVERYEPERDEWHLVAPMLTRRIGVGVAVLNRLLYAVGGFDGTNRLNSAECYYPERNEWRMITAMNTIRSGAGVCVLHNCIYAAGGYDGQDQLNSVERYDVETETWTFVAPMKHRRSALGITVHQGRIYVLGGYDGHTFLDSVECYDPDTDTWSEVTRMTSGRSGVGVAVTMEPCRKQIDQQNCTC

Compound | Human metabolic rate [1] | inhibition at 0.1 µM [2] | EC (1.5-fold NQO1 activity) (NQO1 [3]) | fold induction at 30 mg/kg (NQO1 [4])
CC[C@@H]1CN(Cc2cc(C(c3ccc4c(nnn4C)c3C)C(C)(C)C(=O)O)ccc2C)Cc2cc3cnn(C)c3cc2O1 (stereo partly drawn) [Example 50-(b), 3-(1,4-dimethyl-1H-benzo[d][1,2,3]triazol-5-yl)-3-(3-(((R)-8-ethyl-1-methyl-1,5,7,8-tetrahydro-6H-[1,4]oxazepino[6,7-f]indazol-6-yl)methyl)-4-methylphenyl)-2,2-dimethylpropanoic Acid] | C (150≤metabolic rate<200 pmol/min/mg protein) | ≥ 50% | 0.0005 to 0.005 µM | > 6
Cc1ccc(C(c2ccc3c(nnn3C)c2C)C(C)(C)C(=O)O)cc1CN1CCOc2cc3cccnc3cc2C1 (centres unmarked) [Example 63-(b), 3-(3-((2,3-dihydro-[1,4]oxazepino[7,6-g]quinolin-4 (5H)-yl)methyl)-4-methylphenyl)-3-(1,4-dimethyl-1H-benzo[d][1,2,3]triazol-5-yl)-2,2-dimethylpropanoic Acid] | C (150≤metabolic rate<200 pmol/min/mg protein) | ≥ 50% | 0.005 to 0.05 µM | 3 to 6
